Data published in PubChem BioAssay AID256 (DTP/NCI, 2004).
“And” between values parts separate entries of the source, which are not always exact repeats. Equal entries are not always repeated. Inconclusive results and toxic doses are left out. Non-standard residues stand in square brackets, D forms with d. Residues, ends and D or L forms follow the SMILES beside them. ξ: configuration not given here. *: point of attachment. ξV = CC(C)C(N)C(=O)O; ClAc = O=C(CCl)*

Tested on: CD2F1 mice, L1210 leukemia ip, survival T/C
Experiment: NCI In Vivo Anticancer Drug Screen. Data for tumor model L1210 Leukemia (intraperitoneal) in CD2F1 (CDF1) mice
Details: higher = longer survival
Outline: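 Read-out first: treated-group measurement over vehicle-control measurement, expressed as a ratio. Animals bore a transplanted tumor line and were dosed with compound or vehicle.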

[1] = endpoint: mean survival time, dose: 100.0 mg/kg/injection, schedule: Q04DX002 (ip), vehicle: saline with Tween-80
[2] = endpoint: mean survival time, dose: 200.0 mg/kg/injection, schedule: Q04DX002 (ip), vehicle: saline with Tween-80
[3] = endpoint: mean survival time, dose: 400.0 mg/kg/injection, schedule: Q04DX002 (ip), vehicle: saline with Tween-80
[4] = endpoint: mean survival time, dose: 25.0 mg/kg/injection, schedule: Q04DX003 (ip), vehicle: saline with Tween-80
[5] = endpoint: mean survival time, dose: 50.0 mg/kg/injection, schedule: Q04DX003 (ip), vehicle: saline with Tween-80
[6] = endpoint: mean survival time, dose: 100.0 mg/kg/injection, schedule: Q04DX003 (ip), vehicle: saline with Tween-80
[7] = endpoint: mean survival time, dose: 200.0 mg/kg/injection, schedule: Q04DX003 (ip), vehicle: saline with Tween-80
[8] = endpoint: mean survival time, dose: 400.0 mg/kg/injection, schedule: Q04DX003 (ip), vehicle: saline with Tween-80
[9] = endpoint: mean survival time, dose: 25.0 mg/kg/injection, schedule: Q04DX002 (ip), vehicle: saline with Tween-80
[10] = endpoint: mean survival time, dose: 50.0 mg/kg/injection, schedule: Q04DX002 (ip), vehicle: saline with Tween-80
[11] = endpoint: mean survival time, dose: 100.0 mg/kg/injection, schedule: Q04DX003 (ip), vehicle: saline
[12] = endpoint: mean survival time, dose: 200.0 mg/kg/injection, schedule: Q04DX003 (ip), vehicle: saline
[13] = endpoint: mean survival time, dose: 400.0 mg/kg/injection, schedule: Q04DX003 (ip), vehicle: saline
[14] = endpoint: mean survival time, dose: 6.25 mg/kg/injection, schedule: Q01DX009 (ip), vehicle: saline with Tween-80
[15] = endpoint: mean survival time, dose: 12.5 mg/kg/injection, schedule: Q01DX009 (ip), vehicle: saline with Tween-80
[16] = endpoint: mean survival time, dose: 25.0 mg/kg/injection, schedule: Q01DX009 (ip), vehicle: saline with Tween-80
[17] = endpoint: mean survival time, dose: 50.0 mg/kg/injection, schedule: Q01DX009 (ip), vehicle: saline with Tween-80
[18] = endpoint: mean survival time, dose: 100.0 mg/kg/injection, schedule: Q01DX009 (ip), vehicle: Klucel (hydroxypropylcellulose) (HPC)
[19] = endpoint: mean survival time, dose: 100.0 mg/kg/injection, schedule: Q01DX009 (ip), vehicle: saline with Tween-80
[20] = endpoint: mean survival time, dose: 200.0 mg/kg/injection, schedule: Q01DX009 (ip), vehicle: saline with Tween-80
[21] = endpoint: mean survival time, dose: 100.0 mg/kg/injection, schedule: Q01DX009 (ip), vehicle: saline
[22] = endpoint: mean survival time, dose: 200.0 mg/kg/injection, schedule: Q01DX009 (ip), vehicle: saline
[23] = endpoint: mean survival time, dose: 3.13 mg/kg/injection, schedule: Q01DX009 (ip), vehicle: saline with Tween-80

O=S1(=O)CCCCN1c1ccccn1
T/C [1]: 102 % of control | T/C [2]: 94 % of control | T/C [3]: 105 % of control

O=c1oc(-c2ccc(Cl)cc2)nc2cc(Cl)ccc12
T/C [4]: 93 % of control | T/C [5]: 93 % of control | T/C [6]: 86 % of control and 89 % of control

CCCCCCCOc1ccc(N=[N+]([O-])c2ccc(OCCCCCCC)cc2)cc1
T/C [6]: 95 % of control | T/C [7]: 91 % of control | T/C [8]: 89 % of control

C=C(C)C1CCC2(COS(=O)(=O)c3ccc(C)cc3)CCC3(C)C(CCC4C5(C)CCC(OC6CCCCO6)C(C)(C)C5CCC43C)C12 (stereo not drawn)
T/C [9]: 103 % of control | T/C [10]: 92 % of control

CCOC(=O)c1cc2c3n(c1=O)CCCC3C(c1ccc(Cl)c(Cl)c1)OC2=O (stereo not drawn)
T/C [11]: 98 % of control | T/C [12]: 101 % of control | T/C [13]: 104 % of control

CCCCCCCCCCCCCCCCCCCOc1ccc(OCCCCCCCCCCCC)cc1
T/C (endpoint: mean survival time, dose: 100.0 mg/kg/injection, schedule: Q01DX001 (ip), vehicle: saline with Tween-80): 93 % of control | T/C (endpoint: mean survival time, dose: 200.0 mg/kg/injection, schedule: Q01DX001 (ip), vehicle: saline with Tween-80): 89 % of control | T/C (endpoint: mean survival time, dose: 400.0 mg/kg/injection, schedule: Q01DX001 (ip), vehicle: saline with Tween-80): 88 % of control

COCNC(=S)N/N=C/c1ccccn1
T/C [14]: 97 % of control | T/C [15]: 100 % of control | T/C (endpoint: mean survival time, dose: 12.5 mg/kg/injection, schedule: Q04DX002 (ip), vehicle: saline with Tween-80): 94 % of control | T/C [16]: 97 % of control | T/C [9]: 97 % of control | T/C [17]: 122 % of control | T/C [10]: 97 % of control

CC(=O)Nc1nc2nccn2c(=O)[nH]1
T/C (endpoint: median survival time, dose: 50.0 mg/kg/injection, schedule: Q01DX005 (ip), vehicle: saline): 101 % of control | T/C (endpoint: median survival time, dose: 100.0 mg/kg/injection, schedule: Q01DX005 (ip), vehicle: saline): 100 % of control | T/C (endpoint: median survival time, dose: 200.0 mg/kg/injection, schedule: Q01DX005 (ip), vehicle: saline): 101 % of control

COC(=O)c1cc(Cl)c(C(=O)OC)cc1Cl
T/C [18]: 92 % of control | T/C (endpoint: mean survival time, dose: 200.0 mg/kg/injection, schedule: Q01DX009 (ip), vehicle: Klucel (hydroxypropylcellulose) (HPC)): 97 % of control | T/C (endpoint: mean survival time, dose: 400.0 mg/kg/injection, schedule: Q01DX009 (ip), vehicle: Klucel (hydroxypropylcellulose) (HPC)): 102 % of control

Cc1cc(C)cc(NC(=O)c2ccccc2N)c1
T/C [19]: 107 % of control | T/C [20]: 95 % of control | T/C (endpoint: mean survival time, dose: 400.0 mg/kg/injection, schedule: Q01DX009 (ip), vehicle: saline with Tween-80): 107 % of control

CCCCNC(=O)Oc1ccc(C(=O)OCC)cc1
T/C [16]: 100 % of control | T/C [17]: 97 % of control | T/C [19]: 97 % of control and 100 % of control | T/C [6]: 96 % of control | T/C [7]: 96 % of control | T/C [8]: 90 % of control

CC(=O)NCC(O)C(O)C(O)C(O)CO (stereo not drawn)
T/C [21]: 96 % of control | T/C [22]: 98 % of control | T/C (endpoint: mean survival time, dose: 400.0 mg/kg/injection, schedule: Q01DX009 (ip), vehicle: saline): 110 % of control

FC(F)(F)COP1(OCC(F)(F)F)=NP(OCC(F)(F)F)(OCC(F)(F)F)=NP(OCC(F)(F)F)(OCC(F)(F)F)=NP(OCC(F)(F)F)(OCC(F)(F)F)=N1
T/C (endpoint: mean survival time, dose: 50.0 mg/kg/injection, schedule: Q01DX009 (ip), vehicle: saline): 100 % of control | T/C [21]: 100 % of control | T/C [11]: 97 % of control | T/C [22]: 97 % of control | T/C [12]: 97 % of control | T/C [13]: 105 % of control

O/N=C/c1ccc[nH]1
T/C [6]: 96 % of control | T/C [7]: 96 % of control | T/C [8]: 96 % of control

O=C1c2[nH]c3ccccc3c2CC1N1C(=O)c2ccccc2C1=O (stereo not drawn)
T/C [6]: 87 % of control | T/C [7]: 93 % of control | T/C [8]: 91 % of control

CCCCCOc1ccc(Cl)cc1Cl
T/C [1]: 86 % of control | T/C [2]: 101 % of control | T/C [3]: 109 % of control

COc1cc2c(cc1OC)C(CCNC(=O)CCCO)NCC2 (stereo not drawn)
T/C (endpoint: mean survival time, dose: 100.0 mg/kg/injection, schedule: Q01DX001 (ip), vehicle: saline sonified): 97 % of control | T/C (endpoint: mean survival time, dose: 100.0 mg/kg/injection, schedule: Q01DX009 (ip), vehicle: saline sonified): 98 % of control | T/C (endpoint: mean survival time, dose: 200.0 mg/kg/injection, schedule: Q01DX001 (ip), vehicle: saline sonified): 100 % of control | T/C (endpoint: mean survival time, dose: 200.0 mg/kg/injection, schedule: Q01DX009 (ip), vehicle: saline sonified): 95 % of control | T/C (endpoint: mean survival time, dose: 400.0 mg/kg/injection, schedule: Q01DX001 (ip), vehicle: saline sonified): 100 % of control | T/C (endpoint: mean survival time, dose: 400.0 mg/kg/injection, schedule: Q01DX009 (ip), vehicle: saline sonified): 91 % of control

CC(C)C(NC(=O)CNC(=O)CCl)C(=O)O (stereo not drawn) (ClAc-Gly-[ξV]-OH)
T/C [16]: 92 % of control | T/C [4]: 96 % of control | T/C [17]: 97 % of control | T/C [5]: 100 % of control | T/C [19]: 97 % of control | T/C [6]: 100 % of control

C=CCN(CC=C)C(=O)NCC(=O)OCC
T/C [17]: 101 % of control | T/C [19]: 95 % of control | T/C [20]: 97 % of control

OCC1CCCCCCC1
T/C (endpoint: mean survival time, dose: 50.0 mg/kg/injection, schedule: Q01DX001 (ip), vehicle: carboxymethylcellulose (CMC)): 100 % of control | T/C (endpoint: mean survival time, dose: 100.0 mg/kg/injection, schedule: Q01DX001 (ip), vehicle: carboxymethylcellulose (CMC)): 100 % of control | T/C (endpoint: mean survival time, dose: 200.0 mg/kg/injection, schedule: Q01DX001 (ip), vehicle: carboxymethylcellulose (CMC)): 102 % of control | T/C (endpoint: mean survival time, dose: 400.0 mg/kg/injection, schedule: Q01DX001 (ip), vehicle: carboxymethylcellulose (CMC)): 96 % of control

C[N+](C)(C)/N=C/C=C/c1ccccc1
T/C [15]: 104 % of control | T/C [16]: 104 % of control | T/C [17]: 96 % of control and 107 % of control

O=C(/C=C(\CN1CCCCC1)c1ccccc1)c1ccccc1
T/C (endpoint: mean survival time, dose: 25.0 mg/kg/injection, schedule: Q01DX009 (ip), vehicle: Klucel (hydroxypropylcellulose) (HPC)): 95 % of control | T/C (endpoint: mean survival time, dose: 50.0 mg/kg/injection, schedule: Q01DX009 (ip), vehicle: Klucel (hydroxypropylcellulose) (HPC)): 105 % of control | T/C [18]: 94 % of control

Nc1nc(N)c2c(Cl)c(CNc3ccc(Cl)c(Cl)c3)ccc2n1
T/C (endpoint: mean survival time, dose: 3.12 mg/kg/injection, schedule: Q01DX009 (ip), vehicle: saline with Tween-80): 110 % of control | T/C [23]: 98 % of control | T/C [14]: 114 % of control and 115 % of control | T/C [16]: 153 % of control | T/C [17]: 156 % of control and 188 % of control | T/C [19]: 111 % of control | T/C (endpoint: median survival time, dose: 6.25 mg/kg/injection, schedule: Q01DX009 (ip), vehicle: saline with Tween-80): 102 % of control and 110 % of control | T/C (endpoint: median survival time, dose: 25.0 mg/kg/injection, schedule: Q01DX009 (ip), vehicle: saline with Tween-80): 150 % of control and 153 % of control | T/C (endpoint: median survival time, dose: 50.0 mg/kg/injection, schedule: Q01DX005 (ip), vehicle: saline with Tween-80): 159 % of control | T/C (endpoint: median survival time, dose: 50.0 mg/kg/injection, schedule: Q01DX009 (ip), vehicle: saline with Tween-80): 175 % of control and 198 % of control | T/C (endpoint: median survival time, dose: 83.33 mg/kg/injection, schedule: Q01DX005 (ip), vehicle: saline with Tween-80): 202 % of control | T/C (endpoint: median survival time, dose: 83.63 mg/kg/injection, schedule: Q01DX005 (ip), vehicle: saline with Tween-80): 230 % of control | T/C (endpoint: median survival time, dose: 138.89 mg/kg/injection, schedule: Q01DX005 (ip), vehicle: saline with Tween-80): 179 % of control | T/C (endpoint: median survival time, dose: 139.39 mg/kg/injection, schedule: Q01DX005 (ip), vehicle: saline with Tween-80): 151 % of control | T/C (endpoint: median survival time, dose: 232.31 mg/kg/injection, schedule: Q01DX005 (ip), vehicle: saline with Tween-80): 117 % of control

CC/C(C)=C1\OC(=O)C(C)C(O)C(Cc2cccnc2)NC(=O)C(NC(=O)c2ncccc2O)C(C)OC1=O (stereo not drawn)
T/C [23]: 96 % of control | T/C [14]: 95 % of control | T/C [15]: 96 % of control | T/C [16]: 96 % of control

C[n+]1cc(Br)c2ccccc2c1
T/C (endpoint: mean survival time, dose: 75.0 mg/kg/injection, schedule: Q01DX001 (ip), vehicle: saline): 100 % of control | T/C (endpoint: mean survival time, dose: 150.0 mg/kg/injection, schedule: Q01DX001 (ip), vehicle: saline): 103 % of control
